From ChEMBL document CHEMBL4033637, “Developing DYRK inhibitors derived from the meridianins as a means of increasing levels of NFAT in the nucleus” (Bioorg Med Chem Lett, 2017)
pEC50, pIC50: −log10 of the molar value.

Tests used:
[1] = target: Glycogen synthase kinase-3 beta (Homo sapiens, UniProt P49841); test: Inhibition of full-length recombinant human His-tagged GSK3B recombinant in baculovirus expression system using Alexa-Fluor tracer-236 incubated for 60 mins by TR-FRET based Lantha-screen Eu kinase assay; conditions: for pIC50: read-out: IC50
Glycogen synthase kinase-3 beta, sequence (P49841 whole entry): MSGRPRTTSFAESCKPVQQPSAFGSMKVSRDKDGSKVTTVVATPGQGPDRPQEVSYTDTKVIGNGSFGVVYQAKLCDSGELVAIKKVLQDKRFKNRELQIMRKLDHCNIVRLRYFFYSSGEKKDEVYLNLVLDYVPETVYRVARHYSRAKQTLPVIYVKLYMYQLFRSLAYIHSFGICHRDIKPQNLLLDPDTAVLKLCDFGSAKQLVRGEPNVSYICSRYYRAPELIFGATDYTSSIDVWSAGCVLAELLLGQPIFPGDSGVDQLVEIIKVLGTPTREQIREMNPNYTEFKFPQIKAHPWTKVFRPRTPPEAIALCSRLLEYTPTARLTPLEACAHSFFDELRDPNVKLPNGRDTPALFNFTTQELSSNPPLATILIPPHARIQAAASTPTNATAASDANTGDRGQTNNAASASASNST

[2] = target: Dual specificity tyrosine-phosphorylation-regulated kinase 1A (Homo sapiens, UniProt Q13627)
[3] = Induction of nuclear localization of GFP-tagged NFAT (unknown origin) expressed in mouse muscle fibres by DAPI staining based assay

| IC50 [1] | pIC50 [2] | pIC50 [1] | pEC50 [3] | SMILES |
| --- | --- | --- | --- | --- |
| Not Active | 7.34 |  |  | Nc1nccc(-c2c[nH]c3c(Cl)cccc23)n1 |
| Not Active | 7.03 |  |  | Nc1cc(-c2c[nH]c3c(Cl)cccc23)ccn1 |
|  | 7.05 | 5.32 |  | Cn1cc(-c2ccncc2)c2ccncc21 |
|  | 6.23 | 4.83 |  | Nc1nccc(-c2c[nH]c3ccccc23)n1 |
|  | 8.10 | 5.94 |  | c1cc(-c2cn(CCC3CC3)c3cnccc23)ccn1 |
|  | 6.10 | 4.86 |  | N#Cc1cccc2c(-c3ccnc(N)c3)c[nH]c12 |
|  | 8.10 | 6.18 | 5.55 | CC(C)n1cc(-c2ccncc2)c2ccncc21 |
| Not Active | 6.45 |  |  | COc1cc(-c2c[nH]c3cnccc23)ccn1 |
|  | 6.96 | 5.12 |  | c1cc(-c2cn(CCCN3CCOCC3)c3cnccc23)ccn1 |
| Not Active | 5.67 |  |  | COc1cccc2c(-c3ccnc(N)c3)c[nH]c12 |
| Not Active | 5.53 |  |  | Nc1cc(-c2c[nH]c3cc(Cl)ccc23)ccn1 |
| Not Active | 5.69 |  |  | Nc1cc(-c2c[nH]c3cnccc23)ccn1 |
| Not Active | 6.56 |  |  | c1ccc2c(-c3c[nH]c4cnccc34)ccnc2c1 |
|  | 6.86 | 5.29 |  | N#Cc1cccc2c(-c3ccnc(N)n3)c[nH]c12 |
| Not Active | 5.36 |  |  | Nc1cc(-c2c[nH]c3cc(C(F)(F)F)ccc23)ccn1 |
|  | 6.62 | 4.80 |  | COc1cccc2c(-c3ccnc(N)n3)c[nH]c12 |

| IC50 [1] | pIC50 [2] | pIC50 [1] | pEC50 [3] | SMILES |
| --- | --- | --- | --- | --- |
|  | 6.35 | 5.10 |  | COc1ccc2c(-c3ccnc(N)n3)c[nH]c2c1 |
| Not Active | 7.72 |  |  | Cc1nccc(-c2c[nH]c3cnccc23)n1 |
|  |  | 5.00 |  | Nc1nccc(-c2c[nH]c3c([N+](=O)[O-])cccc23)n1 |
|  | 7.21 | 5.02 |  | Clc1cnccc1-c1c[nH]c2cnccc12 |
|  | 9.00 | 4.91 |  | Nc1nccc(-c2c[nH]c3cnccc23)n1 |
|  | 9.00 | 5.03 |  | c1cc(-c2c[nH]c3cnccc23)ccn1 |
|  | 7.21 | 4.82 |  | Nc1nccc(-c2c[nH]c3cc(C(F)(F)F)ccc23)n1 |
|  | 7.92 | 6.00 |  | Fc1ccc(Cn2cc(-c3ccncc3)c3ccncc32)cc1 |
|  | 5.54 | 4.90 |  | COc1ccc2c(-c3ccnc(N)c3)c[nH]c2c1 |
| Not Active | 7.16 |  |  | Fc1cc(-c2c[nH]c3cnccc23)ccn1 |
|  | 6.39 | 4.97 |  | Nc1nccc(-c2c[nH]c3cc(Cl)ccc23)n1 |
| Not Active | 7.12 |  |  | Cc1cc(-c2c[nH]c3cnccc23)ccn1 |
|  | 7.10 | 4.65 |  | Nc1nccc(-c2c[nH]c3c(Br)cccc23)n1 |
|  | 5.10 | 4.51 |  | c1cncc(-c2c[nH]c3cnccc23)c1 |
| Not Active | 6.55 |  |  | Nc1cc(-c2c[nH]c3c([N+](=O)[O-])cccc23)ccn1 |

| SMILES | IC50 [1] | pIC50 [2] | pIC50 [1] | pEC50 [3] |
| --- | --- | --- | --- | --- |
| COc1ccc2c(c1)[nH]c1c(C)nccc12 [HARMINE] | Not Active |  |  |  |
